{
  "source": "the supplement of paper PMC11061612",
  "key": {"ACHN (Kidney Carcinoma)": {"system": "ACHN (Kidney Carcinoma)", "experiment": "combination Emax (second highest fraction inhibited in the dose matrix, 72 h); higher = more inhibition; extreme values may be limits of the assay", "outline": "(§1)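 Cell lines grown in DMEM/F12 or RPMI with 10% FBS were plated in 1536-well plates and held 24 hours at 37°C, 5% CO2 before 72 hours of exposure to two-drug dose matrices, with DMSO typically at 0.2%. CellTiter-Glo 2.0 luminescence gave viability, which was converted to inhibition. Vehicle wells were set to 0 and blank wells to 1. Combination Emax is the second-highest inhibition in the matrix, and Bliss excess is the observed combination effect minus the expected EA + EB − EA·EB, where EA and EB are the single-agent effects.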"}, "[1]": {"system": "JVM-3 (B-Cell Non-Hodgkin's Lymphoma)", "experiment": "combination Emax (second highest fraction inhibited in the dose matrix, 72 h); higher = more inhibition; extreme values may be limits of the assay", "outline": "as §1"}, "[2]": {"system": "RF-48 (B-Cell Non-Hodgkin's Lymphoma)", "experiment": "combination Emax (second highest fraction inhibited in the dose matrix, 72 h); higher = more inhibition; extreme values may be limits of the assay", "outline": "as §1"}, "[3]": {"system": "JVM-3 (B-Cell Non-Hodgkin's Lymphoma)", "experiment": "Bliss excess, mean over the matrix (fraction); higher = more synergy", "outline": "as §1"}},
  "data": [
    {"smiles": "CC1(C)CCC(CN2CCN(c3ccc(C(=O)NS(=O)(=O)c4ccc(NCC5CCOCC5)c([N+](=O)[O-])c4)c(Oc4cnc5[nH]ccc5c4)c3)CC2)=C(c2ccc(Cl)cc2)C1", "note": "[Venetoclax] + C1CN(CCC1(C(=O)N[C@@H](CCO)C2=CC=C(C=C2)Cl)N)C3=NC=NC4=C3C=CN4 [Capivasertib] (first compound max 1 µM, 7x7, partner max 3 µM)", "values": [
      {"measurement": "combination Emax", "setting": "ACHN (Kidney Carcinoma)", "result": 0.81},
      {"measurement": "combination Emax", "setting": "[1]", "result": 0.636},
      {"measurement": "combination Emax", "setting": "[2]", "result": 0.364},
      {"measurement": "Bliss excess", "setting": "[3]", "result": 0.0192}
    ]},
    {"smiles": "C=CCn1c(=O)c2cnc(Nc3ccc(N4CCN(C)CC4)cc3)nc2n1-c1cccc(C(C)(C)O)n1", "note": "[AZD1775] + C1CN(CCC1(C(=O)N[C@@H](CCO)C2=CC=C(C=C2)Cl)N)C3=NC=NC4=C3C=CN4 [Capivasertib] (first compound max 3 µM, partner max 3 µM)", "values": [
      {"measurement": "combination Emax", "setting": "ACHN (Kidney Carcinoma)", "result": 0.825},
      {"measurement": "combination Emax", "setting": "[1]", "result": 0.971},
      {"measurement": "combination Emax", "setting": "[2]", "result": 0.86},
      {"measurement": "Bliss excess", "setting": "[3]", "result": 0.0012}
    ]},
    {"smiles": "CCc1c2c(nc3ccc(O)cc13)-c1cc3c(c(=O)n1C2)COC(=O)[C@]3(O)CC", "note": "[SN-38] + O=C(c1cc(Cc2n[nH]c(=O)c3ccccc23)ccc1F)N1CCN(C(=O)C2CC2)CC1 [Olaparib] (first compound max 0.3 µM, 7x7, partner max 10 µM)", "values": [
      {"measurement": "combination Emax", "setting": "ACHN (Kidney Carcinoma)", "result": 0.912},
      {"measurement": "combination Emax", "setting": "[1]", "result": 0.998},
      {"measurement": "combination Emax", "setting": "[2]", "result": 0.775},
      {"measurement": "Bliss excess", "setting": "[3]", "result": 0.0365}
    ]},
    {"smiles": "CC1(C)CCC(CN2CCN(c3ccc(C(=O)NS(=O)(=O)c4ccc(NCC5CCOCC5)c([N+](=O)[O-])c4)c(Oc4cnc5[nH]ccc5c4)c3)CC2)=C(c2ccc(Cl)cc2)C1", "note": "[Venetoclax] + Cn1cnc2c(F)c(Nc3ccc(Br)cc3Cl)c(C(=O)NOCCO)cc21 [Selumetinib] (first compound max 1 µM, 7x7, partner max 3 µM)", "values": [
      {"measurement": "combination Emax", "setting": "ACHN (Kidney Carcinoma)", "result": 0.688},
      {"measurement": "combination Emax", "setting": "[1]", "result": 0.486},
      {"measurement": "combination Emax", "setting": "[2]", "result": 0.286},
      {"measurement": "Bliss excess", "setting": "[3]", "result": -0.0583}
    ]},
    {"smiles": "COc1cccc2c1C(=O)c1c(O)c3c(c(O)c1C2=O)C[C@@](O)(C(=O)CO)C[C@@H]3O[C@H]1C[C@H](N)[C@H](O)[C@H](C)O1", "note": "[Doxorubicin] + Cc1cc2ncnn2cc1Nc1ncc2c(n1)n(C1CCOCC1)c(=O)n2C [AZD7648] (first compound max 1 µM, 7x7, partner max 10 µM)", "values": [
      {"measurement": "combination Emax", "setting": "ACHN (Kidney Carcinoma)", "result": 0.913},
      {"measurement": "combination Emax", "setting": "[1]", "result": 0.978},
      {"measurement": "combination Emax", "setting": "[2]", "result": 0.836},
      {"measurement": "Bliss excess", "setting": "[3]", "result": 0.0661}
    ]},
    {"smiles": "Cc1c2c(nn1C)CSCc1cc(n(C)n1)CSc1cc(c3ccccc3c1)OCCCc1c(C(=O)O)n(C)c3c-2c(Cl)ccc13", "note": "[AZD5991] + CN(C)CCCOc1ccc(-c2ccc3ncc4c(c3c2)n(C2CCOCC2)c(=O)n4C)cn1 [AZD0156] (first compound max 1 µM, 7x7, partner max 1 µM)", "values": [
      {"measurement": "combination Emax", "setting": "ACHN (Kidney Carcinoma)", "result": 0.179},
      {"measurement": "combination Emax", "setting": "[1]", "result": 0.509},
      {"measurement": "Bliss excess", "setting": "[3]", "result": -0.0613}
    ]},
    {"smiles": "Cn1cnc2c(F)c(Nc3ccc(Br)cc3Cl)c(C(=O)NOCCO)cc21", "note": "[Selumetinib] + C=CCn1c(=O)c2cnc(Nc3ccc(N4CCN(C)CC4)cc3)nc2n1-c1cccc(C(C)(C)O)n1 [AZD1775] (first compound max 10 µM, partner max 1 µM)", "values": [
      {"measurement": "combination Emax", "setting": "ACHN (Kidney Carcinoma)", "result": 0.863},
      {"measurement": "combination Emax", "setting": "[2]", "result": 0.489}
    ]},
    {"smiles": "Cc1c2c(nn1C)CSCc1cc(n(C)n1)CSc1cc(c3ccccc3c1)OCCCc1c(C(=O)O)n(C)c3c-2c(Cl)ccc13", "note": "[AZD5991] + C1CN(CCC1(C(=O)N[C@@H](CCO)C2=CC=C(C=C2)Cl)N)C3=NC=NC4=C3C=CN4 [Capivasertib] (first compound max 1 µM, 7x7, partner max 3 µM)", "values": [
      {"measurement": "combination Emax", "setting": "[1]", "result": 0.544},
      {"measurement": "combination Emax", "setting": "[2]", "result": 0.353},
      {"measurement": "Bliss excess", "setting": "[3]", "result": -0.0363}
    ]},
    {"smiles": "NC1(C(=O)N[C@@H](CCO)c2ccc(Cl)cc2)CCN(c2ncnc3[nH]ccc23)CC1", "note": "[Capivasertib] + Cn1cnc2c(F)c(Nc3ccc(Br)cc3Cl)c(C(=O)NOCCO)cc21 [Selumetinib] (first compound max 10 µM, 7x7, partner max 10 µM)", "values": [
      {"measurement": "combination Emax", "setting": "ACHN (Kidney Carcinoma)", "result": 0.49},
      {"measurement": "combination Emax", "setting": "[2]", "result": 0.456}
    ]},
    {"smiles": "NC1(C(=O)N[C@@H](CCO)c2ccc(Cl)cc2)CCN(c2ncnc3[nH]ccc23)CC1", "note": "[Capivasertib] + CCN(CCO)CCCOc1ccc2c(Nc3cc(CC(=O)Nc4cccc(F)c4)[nH]n3)ncnc2c1 [AZD2811] (first compound max 10 µM, 7x7, partner max 1 µM)", "values": [
      {"measurement": "combination Emax", "setting": "ACHN (Kidney Carcinoma)", "result": 0.355},
      {"measurement": "combination Emax", "setting": "[2]", "result": 0.534}
    ]},
    {"smiles": "C[C@@H]1COCCN1c1cc(C2([S@](C)(=N)=O)CC2)nc(-c2ccnc3[nH]ccc23)n1", "note": "[AZD6738] + Nc1ccn([C@@H]2O[C@H](CO)[C@@H](O)C2(F)F)c(=O)n1 [Gemcitabine] (first compound max 10 µM, 7x7, partner max 0.3 µM)", "values": [
      {"measurement": "combination Emax", "setting": "ACHN (Kidney Carcinoma)", "result": 0.875},
      {"measurement": "combination Emax", "setting": "[2]", "result": 0.77}
    ]},
    {"smiles": "NC1(C(=O)N[C@@H](CCO)c2ccc(Cl)cc2)CCN(c2ncnc3[nH]ccc23)CC1", "note": "[Capivasertib] + CC(C)n1c(=O)n(C)c2cnc3cc(F)c(-c4ccc(OCCCN5CCCCC5)nc4)cc3c21 [AZD1390] (first compound max 10 µM, 7x7, partner max 0.3 µM)", "values": [
      {"measurement": "combination Emax", "setting": "ACHN (Kidney Carcinoma)", "result": 0.185},
      {"measurement": "combination Emax", "setting": "[2]", "result": 0.44}
    ]},
    {"smiles": "Cn1cnc2c(F)c(Nc3ccc(Br)cc3Cl)c(C(=O)NOCCO)cc21", "note": "[Selumetinib] + CC(C)n1c(=O)n(C)c2cnc3cc(F)c(-c4ccc(OCCCN5CCCCC5)nc4)cc3c21 [AZD1390] (first compound max 10 µM, 7x7, partner max 0.3 µM)", "values": [
      {"measurement": "combination Emax", "setting": "ACHN (Kidney Carcinoma)", "result": 0.305},
      {"measurement": "combination Emax", "setting": "[2]", "result": 0.119}
    ]},
    {"smiles": "CS(=O)(=O)CCNCc1ccc(-c2ccc3ncnc(Nc4ccc(OCc5cccc(F)c5)c(Cl)c4)c3c2)o1", "note": "[Lapatinib] + Cn1cnc2c(F)c(Nc3ccc(Br)cc3Cl)c(C(=O)NOCCO)cc21 [Selumetinib] (first compound max 10 µM, 7x7, partner max 10 µM)", "values": [
      {"measurement": "combination Emax", "setting": "ACHN (Kidney Carcinoma)", "result": 0.577},
      {"measurement": "combination Emax", "setting": "[2]", "result": 0.275}
    ]},
    {"smiles": "O=C(c1cc(Cc2n[nH]c(=O)c3ccccc23)ccc1F)N1CCN(C(=O)C2CC2)CC1", "note": "[Olaparib] + CN(CC[C@H](CSC1=CC=CC=C1)NC2=C(C=C(C=C2)S(=O)(=O)NC(=O)C3=CC=C(C=C3)N4CCC(CC4)[C@H](C5=CC=CC=C5C6=CC=C(C=C6)Cl)O)S(=O)(=O)C(F)(F)F)CCO [AZD4320] (first compound max 10 µM, 7x7, partner max 1 µM)", "values": [
      {"measurement": "combination Emax", "setting": "ACHN (Kidney Carcinoma)", "result": 0.154},
      {"measurement": "combination Emax", "setting": "[2]", "result": 0.926}
    ]},
    {"smiles": "C[C@@H]1COCCN1c1cc(C2([S@](C)(=N)=O)CC2)nc(-c2ccnc3[nH]ccc23)n1", "note": "[AZD6738] + C1CC(C1)(C(=O)[O-])C(=O)[O-].N.N.[Pt+2] [Carboplatin] (first compound max 10 µM, 7x7, partner max 10 µM)", "values": [
      {"measurement": "combination Emax", "setting": "ACHN (Kidney Carcinoma)", "result": 0.819},
      {"measurement": "combination Emax", "setting": "[2]", "result": 0.329}
    ]},
    {"smiles": "CC(=O)c1c(C)c2cnc(Nc3ccc(N4CCNCC4)cn3)nc2n(C2CCCC2)c1=O", "note": "[Palbociclib] + Cc1c2c(nn1C)CSCc1cc(n(C)n1)CSc1cc(c3ccccc3c1)OCCCc1c(C(=O)O)n(C)c3c-2c(Cl)ccc13 [AZD5991] (first compound max 10 µM, 7x7, partner max 1 µM)", "values": [
      {"measurement": "combination Emax", "setting": "ACHN (Kidney Carcinoma)", "result": 0.626},
      {"measurement": "combination Emax", "setting": "[2]", "result": 0.298}
    ]},
    {"smiles": "Cc1c2c(nn1C)CSCc1cc(n(C)n1)CSc1cc(c3ccccc3c1)OCCCc1c(C(=O)O)n(C)c3c-2c(Cl)ccc13", "note": "[AZD5991] + Nc1ccn([C@@H]2O[C@H](CO)[C@@H](O)C2(F)F)c(=O)n1 [Gemcitabine] (first compound max 1 µM, 7x7, partner max 0.3 µM)", "values": [
      {"measurement": "combination Emax", "setting": "ACHN (Kidney Carcinoma)", "result": 0.744},
      {"measurement": "combination Emax", "setting": "[2]", "result": 0.679}
    ]},
    {"smiles": "O=C(c1cc(Cc2n[nH]c(=O)c3ccccc23)ccc1F)N1CCN(C(=O)C2CC2)CC1", "note": "[Olaparib] + Cc1c2c(nn1C)CSCc1cc(n(C)n1)CSc1cc(c3ccccc3c1)OCCCc1c(C(=O)O)n(C)c3c-2c(Cl)ccc13 [AZD5991] (first compound max 10 µM, 7x7, partner max 1 µM)", "values": [
      {"measurement": "combination Emax", "setting": "ACHN (Kidney Carcinoma)", "result": 0.177},
      {"measurement": "combination Emax", "setting": "[2]", "result": 0.365}
    ]},
    {"smiles": "COc1nnc2ccc(N3CCC(c4ccc(OCCN5CCN(C)C(=O)[C@H]5C)cc4)CC3)nn12", "note": "[AZD5153] + C[C@@H]1COCCN1C2=NC(=NC(=C2)C3(CC3)[S@](=N)(=O)C)C4=C5C=CNC5=NC=C4 [AZD6738] (first compound max 1 µM, 7x7, partner max 10 µM)", "values": [
      {"measurement": "combination Emax", "setting": "ACHN (Kidney Carcinoma)", "result": 0.928},
      {"measurement": "combination Emax", "setting": "[2]", "result": 0.629}
    ]}
  ]
}
